Values of other authors, collected in US20040248846A1, “Intranasal administration of triptans” (Nastech Pharmaceutical Company Inc., priority 2003, published 2004).
Where two headings read alike, the source gives them in different places.

How the values were obtained:
[1] = single 6 mg subcutaneous dose, 18 healthy males

mean Cmax (5 mg intranasal dose, 20 females): 5 ng/mL
mean Cmax (20 mg intranasal dose, 20 females): 16 ng/mL
mean Cmax (oral dosing with 25 mg): approximately 18 ng/ml
tmax (oral dosing with 25 mg): approximately 2 hours
mean Cmax [1]: 74 ± 15 ng/mL
median tmax [1]: 12 min
SMILES: CNS(=O)(=O)Cc1ccc2[nH]cc(CCN(C)C)c2c1 [sumatriptan]
efficacy (effective) (patients with migraine; 6 mg subcutaneous dose): ~85%
Onset of pain relief (patients with migraine; after a nasal dose): 30 min
Onset of pain relief (patients with migraine; after a subcutaneous dose): 10 to 34 min
